The values below come from US20060069110A1, “Substituted heterocyclic compounds and methods of use” (priority 2004, published 2006).

A value given as a limit tells only on which side of the number the result lay.

For the assay, the system named is THP1 cells (LPS induced TNF release). Put plainly: Lipopolysaccharide-Activated THP1 Cell TNF Production Assay. The note with it: Homo sapiens, THP-1; THP1 cells, bacterial LPS, secreted TNF-α after 3 h at 37° C.; read-out: IC50 values in the THP1 cell assay (LPS induced TNF release). It is filed as cell-based. The protocol:
Lipopolysaccharide-Activated THP1 Cell TNF Production Assay
THP1 cells are resuspended in fresh THP1 media (RPMI 1640, 10% heat-inactivated FBS, 1×PGS, 1×NEAA, plus 30 μM βME) at a concentration of 1E6/mL. One hundred microliters of cells per well are plated in a polystyrene 96-well tissue culture. One microgram per mL of bacterial LPS is prepared in THP1 media and is transferred to the wells. Test compounds are dissolved in 100% DMSO and are serially diluted 3 fold in a polypropylene 96-well microtiter plate (drug plate). HI control and LO control wells contain only DMSO. One microliter of test compound from the drug plate followed by 10 μL of LPS are transferred to the cell plate. The treated cells are induced to synthesize and secrete TNF-α at 37° C. for 3 h. Forty microliters of conditioned media are transferred to a 96-well polypropylene plate containing 110 μL of ECL buffer (50 mM Tris-HCl pH 8.0, 100 mM NaCl, 0.05% Tween 20, 0.05% NaN3 and 1% FBS) supplemented with 0.44 nM MAB610 monoclonal Ab (R&D Systems), 0.34 nM ruthenylated AF210NA polyclonal Ab (R&D Systems) and 44 μg/mL sheep anti-mouse M280 Dynabeads (Dynal). After a 2 h incubation at RT with shaking, the reaction is read on the ECL M8 Instrument (IGEN Inc.). A low voltage is applied to the ruthenylated TNF-α immune complexes, which in the presence of TPA (the active component in Origlo), results in a cyclical redox reaction generating light at […]. The amount of secreted TNF-α in the presence of compound compared with that in the presence of DMSO vehicle alone (HI control) is calculated using the formula: % control (POC)=(cpd−average LO)/(average HI−average LO)*100. Data (consisting of POC and inhibitor concentration in μM) is fitted to a 4-parameter equation (y=A+((B−A)/(1+((×/C)ôD))), where A is the minimum y (POC) value, B is the maximum y (POC), C is the x (cpd concentration) at the point of inflection and D is the slope factor) using a Levenburg-Marquardt non-linear regression algorithm.
As to `CN(c1ccnc(NCCc2cccnc2)n1)c1ccnc(-c2ccccc2F)n1` [Example 71, N^4-(2-(2-Fluorophenyl)pyrimidin-4-yl)-N^4-methyl-N^2-(2-(pyridin-3-yl)ethyl)-pyrimidine-2,4-diamine], the IC50 (usually the point on the concentration scale where inhibition reaches its midpoint) is no more than 20 µM. The figure for `CN(c1ccnc(NCCc2cccnc2)n1)c1nc(-c2ccccc2)ncc1Br` [Example 63, N^4-(5-Bromo-2-phenylpyrimidin-4-yl)-N^4-methyl-N^2-(2-(pyridin-3-yl)ethyl)-pyrimidine-2,4-diamine] is no more than 20 µM.

In the case of `C[C@H](N)c1ccc(CCNc2nccc(N(C)c3ccnc(-c4ccccc4)n3)n2)cc1` [Example 28, (S)-N^2-(4-(1-Aminoethyl)phenethyl)-N^4-methyl-N^4-(2-phenylpyrimidin-4-yl)-pyrimidine-2,4-diamine], the IC50 was no more than 20 µM.

In the case of `CN(c1c[nH]c(=O)c(-c2ccccc2)c1)c1ccnc(NCCc2ccccc2)n1` [Example 166, 5-(Methyl(2-(phenethylamino)pyrimidin-4-yl)amino)-3-phenylpyridin-2(1H)-one], the IC50 is no more than 20 µM. With `C[C@@H](Cc1cccc(CN)c1)Nc1nccc(N(C)c2cncc(-c3ccccc3)n2)n1` [Example 122, (S)-N^2-(1-(3-(Aminomethyl)phenyl)propan-2-yl)-N^4-methyl-N^4-(6-phenylpyrazin-2-yl)pyrimidine-2,4-diamine], the IC50 was no more than 20 µM. The figure for `C[C@@H](Cc1cccc(CN)c1)Nc1nccc(N(C)c2ccnc(-c3ccc(F)cc3)n2)n1` [Example 87, (S)-N^2-(1-(3-(Aminomethyl)phenyl)propan-2-yl)-N^4-(2-(4-fluorophenyl)pyrimidin-4-yl)-N^4-methylpyrimidine-2,4-diamine] is no more than 20 µM; for `CC(=O)N1CCC(Nc2nccc(N(C)c3cc(-c4ccccc4)c(=O)n(C)c3)n2)CC1` [Example 175, 5-((2-(1-Acetylpiperidin-4-ylamino)pyrimidin-4-yl)(methyl)amino)-1-methyl-3-phenylpyridin-2(1H)-one] it is no more than 20 µM.

Take `CN(c1ccnc(-c2ccccc2)n1)c1nc(NCCc2cccnc2)ncc1F` [Example 70, 5-Fluoro-N^4-methyl-N^4-(2-phenylpyrimidin-4-yl)-N^2-(2-(pyridin-3-yl)ethyl)-pyrimidine-2,4-diamine]: the IC50 was no more than 20 µM.

Regarding `COc1nc(-c2ccccc2)nc(N(C)c2ccnc(N[C@@H](C)Cc3cccc(CN)c3)n2)n1` [Example 121, (S)-N^2-(1-(3-(Aminomethyl)phenyl)propan-2-yl)-N^4-(4-methoxy-6-phenyl-1,3,5-triazin-2-yl)-N^4-methylpyrimidine-2,4-diamine], the IC50 is no more than 20 µM. On to `CC(C)NC[C@@H](Cc1ccccc1)Nc1nccc(N(C)c2ccnc(-c3ccccc3)n2)n1` [Example 49, (R)-N^2-(3-(Isopropylamino)-1-phenylpropan-2-yl)-N^4-methyl-N^4-(2-phenyl-pyrimidin-4-yl)pyrimidine-2,4-diamine], for which the IC50 was no more than 20 µM. The result for `C[C@@H](Cc1cccc([C@@H](C)N)c1)Nc1nccc(N(C)c2c[nH]c(=O)c(-c3ccccc3)c2)n1` [5-((2-((S)-1-(3-((R)-1-Aminoethyl)phenyl)propan-2-ylamino)pyrimidin-4-yl)-(methyl)amino)-3-phenylpyridin-2(1H)-one] reads no more than 20 µM.

As for `C[C@@H](N)CC(=O)N1CCC(Nc2nccc(N(C)c3ccnc(-c4ccccc4)n3)n2)CC1` [Example 44, (R)-3-Amino-1-(4-(4-(methyl(2-phenylpyrimidin-4-yl)amino)pyrimidin-2-ylamino)-piperidin-1-yl)butan-1-one], the IC50 is no more than 20 µM. The result for `Cc1cc(N(C)c2ccnc(-c3ccccc3)n2)nc(N[C@@H](C)Cc2cccc(CNC(=O)[C@H](C)N)c2)n1` [Example 35, (S)-N-((S)-3-((S)-2-(4-Methyl-6-(methyl(2-phenylpyrimidin-4-yl)amino)pyrimidin-2-ylamino)propyl)benzyl)-2-aminopropanamide] reads no more than 20 µM. The result for `C[C@@H](Cc1cccc([C@@H](C)N)c1)Nc1nccc(N(C)c2cc(-c3ccccc3)c(=O)n(C)c2)n1` [Example 179, 5-((2-((S)-1-(3-((R)-1-Aminoethyl)phenyl)propan-2-ylamino)pyrimidin-4-yl)(methyl)amino)-1-methyl-3-phenylpyridin-2(1H)-one] reads no more than 20 µM; that for `C[C@@H](Cc1cccc([C@@H](C)N)c1)Nc1nccc(N(C)c2ccnc(-c3ccccc3)n2)n1` [Example 1, N^2-((S)-1-(3-((R)-1-Aminoethyl)phenyl)propan-2-yl)-N^4-methyl-N^4-(2-phenylpyrimidin-4-yl)pyrimidine-2,4-diamine], no more than 20 µM; that for `CC(Cc1cccc(CO)c1)Nc1nccc(N(C)c2cc(Cl)nc(-c3ccccc3)c2)n1` (centres unmarked) [Example 163, (3-(2-(4-((2-Chloro-6-phenylpyridin-4-yl)(methyl)amino)pyrimidin-2-ylamino)-propyl)phenyl)methanol], no more than 20 µM. On to `CC(Cc1cccc(CO)c1)Nc1nccc(N(C)c2cc(N)nc(-c3ccccc3)n2)n1` (centres unmarked) [Example 119, (3-(2-(4-((6-Amino-2-phenylpyrimidin-4-yl)(methyl)amino)pyrimidin-2-ylamino) -propyl)phenyl)methanol], for which the IC50 is no more than 20 µM. The figure for `COc1ncc(N(C)c2ccnc(NCCc3ccccc3)n2)cc1-c1ccccc1` [Example 172, N^4-(6-Methoxy-5-phenylpyridin-3-yl)-N^4-methyl-N^2-phenethylpyrimidine-2,4-diamine] is no more than 20 µM. The result for `CN(c1ccnc(N[C@@H](CCN2CCOCC2)Cc2ccccc2)n1)c1ccnc(-c2ccccc2)n1` [Example 54, (R)-N^4-Methyl-N^2-(4-morpholino-1-phenylbutan-2-yl)-N^4-(2-phenylpyrimidin-4-yl)pyrimidine-2,4-diamine] reads no more than 20 µM; that for `CN(c1cccc(-c2ccc(Cl)cc2)n1)c1ccnc(NCCc2ccccc2)n1` [Example 134, N^4-(6-(4-Chlorophenyl)pyridin-2-yl)-N^4-methyl-N^2-phenethylpyrimidine-2,4-diamine], no more than 20 µM. The figure for `C[C@@H](Cc1cc(C#N)ccc1Cl)Nc1nccc(N(C)c2ccnc(-c3ccccc3)n2)n1` [Example 41, (S)-4-Chloro-3-(2-(4-(methyl(2-phenylpyrimidin-4-yl)amino)pyrimidin-2-ylamino)-propyl)benzonitrile] is no more than 20 µM; for `C[C@H](N)c1cccc(CCNc2nccc(N(C)c3ccnc(-c4ccccc4)n3)n2)c1` [Example 21, (S)-N^2-(3-(1-Aminoethyl)phenethyl)-N^4-methyl-N^4-(2-phenylpyrimidin-4-yl)-pyrimidine-2,4-diamine] it is no more than 20 µM. In the case of `CN(c1ccnc(N[C@H](Cc2ccccc2)C(N)=O)n1)c1ccnc(-c2ccccc2)n1` [Example 39], the IC50 was no more than 20 µM. With `CN(c1ccnc(NCCc2cccnc2)n1)c1ccnc(-c2ccccc2C(F)(F)F)n1` [Example 75, N^4-Methyl-N^2-(2-(pyridin-3-yl)ethyl)-N^4-(2-(2-(trifluoromethyl)phenyl)pyrimidin-4-yl)pyrimidine-2,4-diamine], the IC50 was no more than 20 µM. The figure for `CN(c1ccnc(NC2CCN(C(=O)OC(C)(C)C)CC2)n1)c1cc(-c2ccccc2)cc(=O)n1C` [Example 162, tert-Butyl 4-(4-(methyl(1-2-yl)amino)pyrimidin-2-ylamino)piperidine-1-carboxylate] is no more than 20 µM. The result for `CN(c1cncc(-c2ccccc2)n1)c1ccnc(NCCc2ccccc2Cl)n1` [Example 123, N^2-(2-Chlorophenethyl)-N^4-methyl-N^4-(6-phenylpyrazin-2-yl)pyrimidine-2,4-diamine] reads no more than 20 µM; that for `CC(Cc1cccc(CN)c1)Nc1nccc(N(C)c2cc(Cl)nc(-c3ccccc3)c2)n1` (centres unmarked) [Example 164, N^2-(1-(3-(Aminomethyl)phenyl)propan-2-yl)-N^4-(2-chloro-6-phenylpyridin-4-yl)-N4-methylpyrimidine-2,4-diamine], no more than 20 µM. The result for `CN(c1cccc(-c2cccc(F)c2F)n1)c1ccnc(NCCc2ccccc2)n1` [Example 145, N^4-(6-(2,3-Difluorophenyl)pyridin-2-yl)-N^4-methyl-N^2-phenethylpyrimidine-2,4-diamine] reads no more than 20 µM. For `C[C@@H](Cc1cccc(CN)c1)Nc1nccc(N(C)c2ccnc(-c3ccccc3F)n2)n1` [Example 83, N^2-((S)-1-(3-(Aminomethyl)phenyl)propan-2-yl)-N^4-(2-(2-fluorophenyl)pyrimidin-4-yl)-N^4-methylpyrimidine-2,4-diamine], the IC50 was no more than 20 µM.
